This assay addresses T1, melatonin ML1A receptor (Homo sapiens, UniProt P48039).
T1 construct: expressed in transfected cells; membrane homogenates
Nature of the assay: Melatonergic binding (2-[125I]-iodomelatonin, membrane homogenates of NIH-3T3 cells expressing ML1A receptor). The following applies: 37° C. for 1 hour, NIH-3T3 cell membranes, read-out: IC50, binding affinity for melatonin receptors. From the text: The compounds of the invention are melatonergic agents. […] Further, the compounds are agonists as determined by their ability, like melatonin, to block the forskolin-stimulated accumulation of cAMP in certain cells. Due to these properties, the compounds and compositions of the invention should be useful as sedatives, chronobiotic agents, anxiolytics, antipsychotics, analgesics, and the like. Specifically, these agents should find use in the treatment of stress, sleep disorders, seasonal depression, appetite regulation, shifts in circadian cycles, melancholia, jet-lag, glaucoma, reproductive disorders, cancer, premenstrual syndrome, immune disorders, inflammatory diseases, neuroendocrine disorders and related conditions.
The melatonergic binding properties of compounds of the invention were measured using the following procedure.
(a) TME=50 mM Tris buffer containing 12.5 mM MgCl2, and 2 mM EDTA, pH 7.4 at 37° C. with concentrated HCl.
(b) Wash buffer: 20 mM Tris base containing 2 mM MgCl2. pH 7.4 at room temperature.
(c) 10^-4 M melatonin (10^-5 M final concentration).
(d) 2-[^125 I]-iodomelatonin, […] final concentration.
The melatonin ML1A receptor cDNA was subcloned into pcDNA3 and introduced into NIH-3T3 cells using Lipofectamine. […]

Experimental findings from US5948817A, “Polycyclic ethyl alkylamide melatonergic agents” (Bristol-Myers Squibb Company, priority 1998, dated 1999) are described below.

T1 sequence (P48039 whole entry): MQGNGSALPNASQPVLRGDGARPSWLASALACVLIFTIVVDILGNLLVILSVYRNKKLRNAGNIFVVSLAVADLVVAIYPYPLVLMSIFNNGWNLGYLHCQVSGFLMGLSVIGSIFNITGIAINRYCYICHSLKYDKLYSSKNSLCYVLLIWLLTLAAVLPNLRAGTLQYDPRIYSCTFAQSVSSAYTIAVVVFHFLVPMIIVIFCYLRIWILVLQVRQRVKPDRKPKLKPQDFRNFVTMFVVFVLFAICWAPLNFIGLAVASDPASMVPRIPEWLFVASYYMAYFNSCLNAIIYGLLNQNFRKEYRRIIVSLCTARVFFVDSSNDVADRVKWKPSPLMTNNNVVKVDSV

Take `CCC(=O)NCCC1c2ccccc2-c2ccc3c(c21)CCO3` (centres unmarked) [Example 1, N-[2-(2,10-dihydro-1H-fluoreno[2,1-b]furan-10-yl)ethyl]propanamide]: the IC50 is < 0.025 µM. As to `CCC(=O)NCCC1c2cc(OC)ccc2-c2ccc3c(c21)OCO3` (centres unmarked) [Example 2, N-[2-(8-Methoxy-10H-fluoreno[1,2-d]-1,3-dioxol-10-yl)ethyl]propanamide], the IC50 was < 0.025 µM.
